Reference: ChEMBL document CHEMBL4311986, “Synthesis and biological evaluation of new multi-target 3-(1H-indol-3-yl)pyrrolidine-2,5-dione derivatives with potential antidepressant effect” (Eur J Med Chem, 2019)
Where a name gives a salt, the structure may show the parent alone. Activity calls are given as the source filed them. The rule behind the calls is not given here.

Tests used:
Mus musculus [1] = experiment: Antidepressant-like activity in CD-1 mouse assessed as decrease in immobility time at 10 mg/kg, ip treated for 30 mins and measured for 4 mins by forced swim test; assay type: functional, organism-based
Mus musculus [2] = experiment: Induction of hypothermia in CD-1 mouse assessed as change in body temperature at 15 mg/kg, ip measured after 30 mins by thermometric method (reference value: -0.2 to 0.4 deg C); assay type: functional, organism-based
Mus musculus [3] = experiment: Induction of hypothermia in CD-1 mouse assessed as change in body temperature at 10 mg/kg, ip pretreated for 60 mins with 5-HT1AR antagonist WAY100635 followed by compound treatment and measured after 30 mins by thermometric method; assay type: functional, organism-based
[4] = Half life in human liver microsomes at 1 uM measured for 5 to 30 mins in presence of NADPH by LC-MS/MS analysis; assay type: ADME, Microsome
Mus musculus [5] = experiment: Antidepressant-like activity in CD-1 mouse at 10 mg/kg, ip treated for 30 mins and measured for 4 mins by forced swim test
Mus musculus [6] = experiment: Induction of hypothermia in CD-1 mouse assessed as change in body temperature at 10 mg/kg, ip pretreated for 30 mins with 5-HT1AR antagonist WAY100635 followed by compound treatment and measured after 30 mins by thermometric method; assay type: functional, organism-based
Mus musculus [7] = experiment: Induction of hypothermia in CD-1 mouse assessed as change in body temperature at 20 mg/kg, ip measured after 30 mins by thermometric method; assay type: functional, organism-based
Mus musculus [8] = experiment: Induction of hypothermia in CD-1 mouse assessed as change in body temperature at 20 mg/kg, ip measured after 90 mins by thermometric method; assay type: functional, organism-based
hERG (KCNH2) [9] = biological target: T1, hERG (KCNH2) (Homo sapiens, UniProt Q12809); experiment: Inhibition of human ERG at 10 uM by automated patch-clamp assay relative to control
Mus musculus [10] = experiment: Induction of hypothermia in CD-1 mouse assessed as change in body temperature at 5 mg/kg, ip measured after 30 mins by thermometric method; assay type: functional, organism-based
Mus musculus [11] = experiment: Induction of hypothermia in CD-1 mouse assessed as change in body temperature at 20 mg/kg, ip measured after 60 mins by thermometric method; assay type: functional, organism-based
Mus musculus [12] = experiment: Induction of hypothermia in CD-1 mouse assessed as change in body temperature at 10 mg/kg, ip measured after 90 mins by thermometric method; assay type: functional, organism-based
Mus musculus [13] = experiment: Induction of hypothermia in CD-1 mouse assessed as change in body temperature at 10 mg/kg, ip measured after 30 mins by thermometric method; assay type: functional, organism-based
Mus musculus [14] = experiment: Induction of hypothermia in CD-1 mouse assessed as change in body temperature at 15 mg/kg, ip measured after 90 mins by thermometric method (reference value: -0.3 to 0.3 deg C); assay type: functional, organism-based
Mus musculus [15] = experiment: Induction of hypothermia in CD-1 mouse assessed as change in body temperature at 5 mg/kg, ip measured after 90 mins by thermometric method; assay type: functional, organism-based
[16] = test system: Alpha-1 adrenergic receptor (Rattus norvegicus); experiment: Displacement of [3H]-prazosin from rat cortex alpha1 adrenergic receptor incubated for 30 mins by microbeta scintillation counting method
Mus musculus [17] = experiment: Induction of hypothermia in CD-1 mouse assessed as change in body temperature at 5 mg/kg, ip measured after 120 mins by thermometric method; assay type: functional, organism-based
Mus musculus [18] = experiment: Induction of hypothermia in CD-1 mouse assessed as change in body temperature at 15 mg/kg, ip measured after 120 mins by thermometric method (reference value: -0.1 to 0.3 deg C); assay type: functional, organism-based
Mus musculus [19] = experiment: Induction of hypothermia in CD-1 mouse assessed as change in body temperature at 15 mg/kg, ip measured after 60 mins by thermometric method (reference value: -0.2 to 0.5 deg C); assay type: functional, organism-based
Mus musculus [20] = experiment: Induction of hypothermia in CD-1 mouse assessed as change in body temperature at 20 mg/kg, ip measured after 120 mins by thermometric method; assay type: functional, organism-based
hERG (KCNH2) [21] = biological target: T1, hERG (KCNH2); experiment: Inhibition of human ERG at 0.1 uM by automated patch-clamp assay relative to control
Mus musculus [22] = experiment: Induction of hypothermia in CD-1 mouse assessed as change in body temperature at 10 mg/kg, ip measured after 60 mins by thermometric method; assay type: functional, organism-based
hERG (KCNH2) [23] = biological target: T1, hERG (KCNH2); experiment: Inhibition of human ERG at 1 uM by automated patch-clamp assay relative to control
Mus musculus [24] = experiment: Induction of hypothermia in CD-1 mouse assessed as change in body temperature at 10 mg/kg, ip measured after 120 mins by thermometric method; assay type: functional, organism-based
Mus musculus [25] = experiment: Induction of hypothermia in CD-1 mouse assessed as change in body temperature at 5 mg/kg, ip measured after 60 mins by thermometric method; assay type: functional, organism-based
[26] = biological target: 5-hydroxytryptamine receptor 7 (Homo sapiens, UniProt P34969); experiment: Displacement of [3H]-5-CT from human 5HT7 receptor expressed in HEK293 cells incubated for 1 hr by liquid scintillation counting method; assay type: cell-based
[27] = biological target: 5-hydroxytryptamine receptor 2B (Homo sapiens, UniProt P41595); experiment: Binding affinity to 5-HT2BR (unknown origin)
D(2) dopamine receptor = D(2) dopamine receptor (Homo sapiens, UniProt P14416); experiment: Displacement of [3H]-raclopride from human D2L receptor expressed in HEK293 cells incubated for 1 hr by liquid scintillation counting method; assay type: cell-based
[28] = biological target: T2, 5-hydroxytryptamine receptor 1A (Homo sapiens, UniProt P08908)
T2 sequence (P08908 whole entry): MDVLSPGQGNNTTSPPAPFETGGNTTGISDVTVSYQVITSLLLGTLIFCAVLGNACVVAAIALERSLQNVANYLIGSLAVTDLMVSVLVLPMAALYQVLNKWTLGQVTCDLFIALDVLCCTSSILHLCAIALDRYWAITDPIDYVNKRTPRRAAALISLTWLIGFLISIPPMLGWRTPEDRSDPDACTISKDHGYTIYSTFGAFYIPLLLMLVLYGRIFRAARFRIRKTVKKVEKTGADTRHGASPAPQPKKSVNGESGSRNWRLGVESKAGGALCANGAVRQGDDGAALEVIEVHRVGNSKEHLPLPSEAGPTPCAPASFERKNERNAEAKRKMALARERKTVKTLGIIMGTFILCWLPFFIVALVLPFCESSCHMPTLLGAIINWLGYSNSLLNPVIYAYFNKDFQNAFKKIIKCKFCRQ

[29] = biological target: T3, 5-hydroxytryptamine receptor 2C (Homo sapiens, UniProt P28335); experiment: Binding affinity to 5-HT2CR (unknown origin)
T3 sequence (P28335 whole entry): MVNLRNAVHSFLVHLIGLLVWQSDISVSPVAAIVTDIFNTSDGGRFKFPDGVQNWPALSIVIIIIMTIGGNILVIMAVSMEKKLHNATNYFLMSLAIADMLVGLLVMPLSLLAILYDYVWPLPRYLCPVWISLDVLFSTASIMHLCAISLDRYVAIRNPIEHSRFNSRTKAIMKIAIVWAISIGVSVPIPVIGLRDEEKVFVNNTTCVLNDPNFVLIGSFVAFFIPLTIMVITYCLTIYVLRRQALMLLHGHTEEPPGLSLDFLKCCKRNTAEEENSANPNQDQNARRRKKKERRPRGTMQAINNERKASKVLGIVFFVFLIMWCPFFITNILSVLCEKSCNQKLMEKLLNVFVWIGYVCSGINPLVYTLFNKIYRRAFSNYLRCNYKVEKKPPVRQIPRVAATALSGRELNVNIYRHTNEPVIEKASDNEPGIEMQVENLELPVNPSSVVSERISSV

T1 sequence (Q12809 whole entry): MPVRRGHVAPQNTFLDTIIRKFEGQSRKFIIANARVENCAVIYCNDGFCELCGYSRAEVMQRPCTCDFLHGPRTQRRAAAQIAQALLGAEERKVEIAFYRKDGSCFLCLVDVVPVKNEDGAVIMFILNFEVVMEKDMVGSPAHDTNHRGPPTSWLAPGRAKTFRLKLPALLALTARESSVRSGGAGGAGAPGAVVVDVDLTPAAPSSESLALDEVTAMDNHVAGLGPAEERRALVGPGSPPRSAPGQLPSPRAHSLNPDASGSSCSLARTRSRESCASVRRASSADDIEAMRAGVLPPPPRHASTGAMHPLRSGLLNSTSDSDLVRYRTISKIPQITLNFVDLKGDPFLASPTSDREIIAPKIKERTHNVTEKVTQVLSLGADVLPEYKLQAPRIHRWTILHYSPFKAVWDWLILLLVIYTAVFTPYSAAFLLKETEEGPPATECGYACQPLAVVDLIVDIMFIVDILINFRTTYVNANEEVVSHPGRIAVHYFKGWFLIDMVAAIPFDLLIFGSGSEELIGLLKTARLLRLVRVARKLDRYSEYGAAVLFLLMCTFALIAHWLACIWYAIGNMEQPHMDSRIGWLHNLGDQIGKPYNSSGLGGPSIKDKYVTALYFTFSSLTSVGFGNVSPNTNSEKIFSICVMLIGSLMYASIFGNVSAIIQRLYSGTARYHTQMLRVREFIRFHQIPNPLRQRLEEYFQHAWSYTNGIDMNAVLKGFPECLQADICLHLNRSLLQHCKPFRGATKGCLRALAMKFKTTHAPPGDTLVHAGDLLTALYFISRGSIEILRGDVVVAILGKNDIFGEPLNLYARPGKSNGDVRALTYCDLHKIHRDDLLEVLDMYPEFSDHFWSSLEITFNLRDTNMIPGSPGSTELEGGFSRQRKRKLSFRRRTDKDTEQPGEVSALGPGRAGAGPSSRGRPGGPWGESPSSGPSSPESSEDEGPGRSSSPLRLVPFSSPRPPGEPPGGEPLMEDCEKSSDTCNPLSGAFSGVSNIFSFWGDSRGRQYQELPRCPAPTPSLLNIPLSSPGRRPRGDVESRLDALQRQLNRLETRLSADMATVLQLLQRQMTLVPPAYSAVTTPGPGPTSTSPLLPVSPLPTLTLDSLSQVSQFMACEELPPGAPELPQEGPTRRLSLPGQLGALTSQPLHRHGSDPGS
D(2) dopamine receptor, sequence (P14416 whole entry): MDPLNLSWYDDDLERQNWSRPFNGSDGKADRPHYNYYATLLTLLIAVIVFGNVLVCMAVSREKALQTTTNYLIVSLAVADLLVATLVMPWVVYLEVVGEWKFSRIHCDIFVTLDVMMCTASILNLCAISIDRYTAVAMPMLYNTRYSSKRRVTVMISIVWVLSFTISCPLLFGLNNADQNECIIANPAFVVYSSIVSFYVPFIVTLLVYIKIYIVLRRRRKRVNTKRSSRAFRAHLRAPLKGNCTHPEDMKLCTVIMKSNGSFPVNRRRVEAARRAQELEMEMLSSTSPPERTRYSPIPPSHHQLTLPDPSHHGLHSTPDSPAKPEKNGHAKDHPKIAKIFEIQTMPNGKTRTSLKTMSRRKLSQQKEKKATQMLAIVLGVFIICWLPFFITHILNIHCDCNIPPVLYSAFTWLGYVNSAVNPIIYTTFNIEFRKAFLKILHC
5-hydroxytryptamine receptor 2B, sequence (P41595 whole entry): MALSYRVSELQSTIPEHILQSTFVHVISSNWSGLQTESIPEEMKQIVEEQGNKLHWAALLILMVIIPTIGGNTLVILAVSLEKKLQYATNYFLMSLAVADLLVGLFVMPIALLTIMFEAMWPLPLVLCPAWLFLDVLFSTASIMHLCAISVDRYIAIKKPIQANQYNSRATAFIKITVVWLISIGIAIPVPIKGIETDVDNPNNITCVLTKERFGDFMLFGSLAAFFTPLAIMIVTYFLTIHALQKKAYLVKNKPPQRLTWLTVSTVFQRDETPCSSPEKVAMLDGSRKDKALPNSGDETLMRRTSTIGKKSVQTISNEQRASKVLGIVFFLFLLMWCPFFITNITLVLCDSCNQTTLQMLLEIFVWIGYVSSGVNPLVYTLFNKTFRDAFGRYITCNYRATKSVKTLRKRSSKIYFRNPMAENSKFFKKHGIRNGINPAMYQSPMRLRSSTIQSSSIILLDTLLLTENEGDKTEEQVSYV
5-hydroxytryptamine receptor 7, sequence (P34969 whole entry): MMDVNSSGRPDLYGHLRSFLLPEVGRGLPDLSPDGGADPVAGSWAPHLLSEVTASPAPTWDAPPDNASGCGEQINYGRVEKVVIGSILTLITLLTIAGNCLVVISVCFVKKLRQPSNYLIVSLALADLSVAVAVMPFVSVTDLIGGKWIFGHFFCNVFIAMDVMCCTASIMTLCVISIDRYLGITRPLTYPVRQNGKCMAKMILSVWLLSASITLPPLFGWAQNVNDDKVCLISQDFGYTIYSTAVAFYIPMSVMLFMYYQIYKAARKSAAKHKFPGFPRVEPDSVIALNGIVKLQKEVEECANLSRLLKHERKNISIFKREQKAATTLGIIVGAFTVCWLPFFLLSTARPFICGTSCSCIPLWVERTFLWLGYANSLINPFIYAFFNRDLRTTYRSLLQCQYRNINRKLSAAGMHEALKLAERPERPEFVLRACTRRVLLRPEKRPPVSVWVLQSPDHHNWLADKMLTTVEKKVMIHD

O=C1CC(c2c[nH]c3ccccc23)C(=O)N1CCCCN1CCC(c2c[nH]c3ccc(F)cc23)CC1 (stereo not given)
Activity (Mus musculus [1]): Active
deltaT (Mus musculus [2]): -2 °C
deltaT (Mus musculus [3]): 0.7 °C
half-life at 1 µM [4]: 11.5 min
Activity (Mus musculus [5]): Active
deltaT (Mus musculus [6]): -0.1 °C
deltaT (Mus musculus [7]): -2.2 °C
deltaT (Mus musculus [8]): -0.4 °C
inhibition at 10 µM (hERG (KCNH2) [9]): 96.4%
deltaT (Mus musculus [10]): 0.3 °C
deltaT (Mus musculus [11]): -1 °C
deltaT (Mus musculus [12]): 0.1 °C
deltaT (Mus musculus [13]): -1.4 °C
deltaT (Mus musculus [14]): 0 °C
deltaT (Mus musculus [15]): 0.5 °C
Activity [16]: Active
deltaT (Mus musculus [17]): 0.2 °C
deltaT (Mus musculus [18]): 0.3 °C
deltaT (Mus musculus [19]): -0.8 °C
deltaT (Mus musculus [20]): -0.3 °C
inhibition at 0.1 µM (hERG (KCNH2) [21]): 45.1%
deltaT (Mus musculus [22]): -0.5 °C
inhibition at 1 µM (hERG (KCNH2) [23]): 84.7%
deltaT (Mus musculus [24]): 0.2 °C
deltaT (Mus musculus [25]): 0.4 °C

O=c1ccc2ccc(OCCCCN3CCN(c4cccc5sccc45)CC3)cc2[nH]1 [BREXPIPRAZOLE]
Ki [26]: 3.7 nM
Ki [27]: 0.398 nM
Ki (D(2) dopamine receptor): 0.3 nM
Ki [28]: 0.12 nM

CC[C@@H](CO)NC(=O)[C@@H]1C=C2c3cccc4c3c(cn4C)C[C@H]2N(C)C1 [METHYSERGIDE MALEATE]
Ki [29]: 0.794 nM
